Measurements: patent publication US20180320217A1, “METHODS FOR SAMPLING AND MEASURING ORAL LAVAGE PROTEINS” (The Procter & Gamble Company, priority 2017, published 2018)
“And” between values parts separate entries of the source, which are not always exact repeats. Equal entries are not always repeated. Structures can show the parent of a compound that is named as a salt.

Key:
[1] = Formation of formazan dyes: control buffer and 1-Methoxy PMS, absence of malate (TABLE 21); type: biochemical
[2] = system: Malate dehydrogenase and diaphorase; assay: Formation of formazan dyes: Malate dehydrogenase and diaphorase, absence of malate (TABLE 9); type: biochemical, pig heart
oral lavage [3] = assay: Formation of formazan dyes: oral lavage and diaphorase, not malate (TABLE 11); type: biochemical, human
diaphorase [4] = assay: Formation of formazan dyes: NADH and diaphorase, absence of malate (TABLE 7); type: biochemical, Clostridium kluyveri; settings: NADH and diaphorase, absence of malate
diaphorase [5] = assay: Formation of formazan dyes: only diaphorase, not malate (TABLE 13); type: biochemical, Clostridium kluyveri; settings: mean of three experiments
oral lavage [6] = assay: Formation of formazan dyes: oral lavage, malate and diaphorase (TABLE 12); type: biochemical, human; settings: oral lavage, malate and diaphorase
Malate dehydrogenase [7] = biological target: T1, Malate dehydrogenase (Sus scrofa, UniProt P00346); assay: Formation of formazan dyes: Malate dehydrogenase and 1-Methoxy PMS, absence of malate (TABLE 17); type: biochemical, pig heart; set-up: L-malate dehydrogenase (pig heart); purchased Sigma-Aldrich 10127248001 / 10127914001
T1 sequence (P00346 25-338): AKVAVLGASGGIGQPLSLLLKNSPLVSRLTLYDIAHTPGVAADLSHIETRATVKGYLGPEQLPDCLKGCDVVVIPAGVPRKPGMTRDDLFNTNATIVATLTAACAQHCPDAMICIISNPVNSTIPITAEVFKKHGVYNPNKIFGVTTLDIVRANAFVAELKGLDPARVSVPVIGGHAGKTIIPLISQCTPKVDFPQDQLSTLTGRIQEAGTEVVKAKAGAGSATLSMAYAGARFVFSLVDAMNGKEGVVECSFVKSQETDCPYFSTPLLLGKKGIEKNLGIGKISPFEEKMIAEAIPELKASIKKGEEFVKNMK

diaphorase [8] = assay: Formation of formazan dyes: NADH, diaphorase and malate (TABLE 8); type: biochemical, Clostridium kluyveri; settings: NADH, diaphorase and malate
[9] = system: Malate dehydrogenase and diaphorase; assay: Formation of formazan dyes: Malate dehydrogenase, diaphorase and malate (TABLE 10); type: biochemical, pig heart
[10] = Formation of formazan dyes: NADH, malate and 1-methoxy PMS (TABLE 16); type: biochemical
Malate dehydrogenase [11] = biological target: T1, Malate dehydrogenase; assay: Formation of formazan dyes: Malate dehydrogenase, malate and 1-Methoxy PMS (TABLE 18); type: biochemical, pig heart; set-up: L-malate dehydrogenase (pig heart); purchased Sigma-Aldrich 10127248001 / 10127914001
[12] = Formation of formazan dyes: control buffer, malate and 1-Methoxy PMS (TABLE 22); type: biochemical
diaphorase [13] = assay: Formation of formazan dyes: only diaphorase and malate (TABLE 14); type: biochemical, Clostridium kluyveri; settings: mean of three experiments

COc1cc([N+](=O)[O-])c(S(=O)(=O)[O-])cc1-n1nc(C(=O)Nc2ccccc2)n[n+]1-c1cc(S(=O)(=O)O)c([N+](=O)[O-])cc1OC [XTT, 2,3-Bis(2-methoxy-4-nitro-5-sulfophenyl)-2H-tetrazolium-5-carboxanilide inner salt]
conversion into colored formazan dyes in assay buffer containing 1-methoxy PMS [1]: slowly catalyze the conversion of tetrazolium salts into colored formazan dyes
Formation of formazan dyes, absorbance, Means 0 h ([2]; Malate dehydrogenase and diaphorase, absence of malate, 0 h): 0.39
Formation of formazan dyes, absorbance, Means 1 h ([2]; Malate dehydrogenase and diaphorase, absence of malate, 1 h): 0.44
Formation of formazan dyes, absorbance, Means 2 h ([2]; Malate dehydrogenase and diaphorase, absence of malate, 2 h): 0.46
Formation of formazan dyes, absorbance, Means 3 h ([2]; Malate dehydrogenase and diaphorase, absence of malate, 3 h): 0.50
Formation of formazan dyes, absorbance, Means 4 h ([2]; Malate dehydrogenase and diaphorase, absence of malate, 4 h): 0.50
Formation of formazan dyes, absorbance, Means 6 h ([2]; Malate dehydrogenase and diaphorase, absence of malate, 6 h): 0.54
Formation of formazan dyes, absorbance, Means 8 h ([2]; Malate dehydrogenase and diaphorase, absence of malate, 8 h): 0.57
Formation of formazan dyes, absorbance, Means 10 h ([2]; Malate dehydrogenase and diaphorase, absence of malate, 10 h): 0.58
Formation of formazan dyes, absorbance, Means 12 h ([2]; Malate dehydrogenase and diaphorase, absence of malate, 12 h): 0.66
reduction of tetrazolium dye in the absence of substrate malate ([2]; malate dehydrogenase and diaphorase (TABLE 9)): remained largely in oxidized forms
Formation of formazan dyes, absorbance, Means 0 h (oral lavage [3]; oral lavage and diaphorase, not malate, 0 h): 0.80
Formation of formazan dyes, absorbance, Means 1 h (oral lavage [3]; oral lavage and diaphorase, not malate, 1 h): 0.98
Formation of formazan dyes, absorbance, Means 2 h (oral lavage [3]; oral lavage and diaphorase, not malate, 2 h): 1.04
Formation of formazan dyes, absorbance, Means 3 h (oral lavage [3]; oral lavage and diaphorase, not malate, 3 h): 0.99
Formation of formazan dyes, absorbance, Means 4 h (oral lavage [3]; oral lavage and diaphorase, not malate, 4 h): 1.18
Formation of formazan dyes, absorbance, Means 6 h (oral lavage [3]; oral lavage and diaphorase, not malate, 6 h): 1.24
Formation of formazan dyes, absorbance, Means 8 h (oral lavage [3]; oral lavage and diaphorase, not malate, 8 h): 1.26
Formation of formazan dyes, absorbance, Means 10 h (oral lavage [3]; oral lavage and diaphorase, not malate, 10 h): 1.27
Formation of formazan dyes, absorbance, Means 12 h (oral lavage [3]; oral lavage and diaphorase, not malate, 12 h): 1.28
reduction to formazan dyes by pooled oral lavage (oral lavage [3]; pooled oral lavage of high bleeder group, diaphorase, no added malate (TABLE 11)): changed to formazan dyes in a significant amount
Formation of formazan dyes, absorbance, Means 0 h (diaphorase [4]; 0 h): 2.22
Formation of formazan dyes, absorbance, Means 1 h (diaphorase [4]; 1 h): 2.35
Formation of formazan dyes, absorbance, Means 2 h (diaphorase [4]; 2 h): 2.36
Formation of formazan dyes, absorbance, Means 3 h (diaphorase [4]; 3 h): 2.32
Formation of formazan dyes, absorbance, Means 4 h (diaphorase [4]; 4 h): 2.40
Formation of formazan dyes, absorbance, Means 6 h (diaphorase [4]; 6 h): 2.39
Formation of formazan dyes, absorbance, Means 8 h (diaphorase [4]; 8 h): 2.45
Formation of formazan dyes, absorbance, Means 10 h (diaphorase [4]; 10 h): 2.45
Formation of formazan dyes, absorbance, Means 12 h (diaphorase [4]; 12 h): 2.46
Absorbance, formation of formazan dyes (Means) (diaphorase [5]; 0 h): 0.41
Absorbance, formation of formazan dyes (Means) (diaphorase [5]; 1 h): 0.49
Absorbance, formation of formazan dyes (Means) (diaphorase [5]; 2 h): 0.52
Absorbance, formation of formazan dyes (Means) (diaphorase [5]; 3 h): 0.54
Absorbance, formation of formazan dyes (Means) (diaphorase [5]; 4 h): 0.54
Absorbance, formation of formazan dyes (Means) (diaphorase [5]; 6 h): 0.60
Absorbance, formation of formazan dyes (Means) (diaphorase [5]; 8 h): 0.63
Absorbance, formation of formazan dyes (Means) (diaphorase [5]; 10 h): 0.64
Absorbance, formation of formazan dyes (Means) (diaphorase [5]; 12 h): 0.67
Formation of formazan dyes, absorbance, Means 0 h (oral lavage [6]; 0 h): 0.75
Formation of formazan dyes, absorbance, Means 1 h (oral lavage [6]; 1 h): 0.88
Formation of formazan dyes, absorbance, Means 2 h (oral lavage [6]; 2 h): 0.94
Formation of formazan dyes, absorbance, Means 3 h (oral lavage [6]; 3 h): 0.98
Formation of formazan dyes, absorbance, Means 4 h (oral lavage [6]; 4 h): 1.19
Formation of formazan dyes, absorbance, Means 6 h (oral lavage [6]; 6 h): 1.41
Formation of formazan dyes, absorbance, Means 8 h (oral lavage [6]; 8 h): 1.73
Formation of formazan dyes, absorbance, Means 10 h (oral lavage [6]; 10 h): 1.90
Formation of formazan dyes, absorbance, Means 12 h (oral lavage [6]; 12 h): 2.08
Absorbance, formation of formazan dyes (Means) (Malate dehydrogenase [7]): 0.61 and 0.72 and 0.80 and 0.82 and 0.84 and 0.85 and 0.91 and 0.93
Formation of formazan dyes, absorbance, Means 0 h (diaphorase [8]; 0 h): 1.95
Formation of formazan dyes, absorbance, Means 1 h (diaphorase [8]; 1 h): 2.20
Formation of formazan dyes, absorbance, Means 2 h (diaphorase [8]; 2 h): 2.18
Formation of formazan dyes, absorbance, Means 3 h (diaphorase [8]; 3 h): 2.17
Formation of formazan dyes, absorbance, Means 4 h (diaphorase [8]; 4 h): 2.23
Formation of formazan dyes, absorbance, Means 6 h (diaphorase [8]; 6 h): 2.28
Formation of formazan dyes, absorbance, Means 8 h (diaphorase [8]; 8 h): 2.33
Formation of formazan dyes, absorbance, Means 10 h (diaphorase [8]; 10 h): 2.41
Formation of formazan dyes, absorbance, Means 12 h (diaphorase [8]; 12 h): 2.45
Formation of formazan dyes, absorbance, Means 0 h ([9]; Malate dehydrogenase, diaphorase and malate, 0 h): 1.21
Formation of formazan dyes, absorbance, Means 1 h ([9]; Malate dehydrogenase, diaphorase and malate, 1 h): 1.98
Formation of formazan dyes, absorbance, Means 2 h ([9]; Malate dehydrogenase, diaphorase and malate, 2 h): 2.41
Formation of formazan dyes, absorbance, Means 3 h ([9]; Malate dehydrogenase, diaphorase and malate, 3 h): 2.71
Formation of formazan dyes, absorbance, Means 4 h ([9]; Malate dehydrogenase, diaphorase and malate, 4 h): 3.02
Formation of formazan dyes, absorbance, Means 6 h ([9]; Malate dehydrogenase, diaphorase and malate, 6 h): 3.54
Formation of formazan dyes, absorbance, Means 8 h ([9]; Malate dehydrogenase, diaphorase and malate, 8 h): 3.86
Formation of formazan dyes, absorbance, Means 10 h ([9]; Malate dehydrogenase, diaphorase and malate, 10 h): 3.90
Formation of formazan dyes, absorbance, Means 12 h ([9]; Malate dehydrogenase, diaphorase and malate, 12 h): 3.80
conversion to reduced formazan dyes ([9]; malate dehydrogenase, diaphorase and malate (TABLE 10)): converted to reduced formazan dyes in a time-dependent manner
Absorbance, formation of formazan dyes (Means) [10]: 1.51 and 1.56 and 1.61 and 1.67 and 1.80 and 1.94 and 2.02 and 2.15
Absorbance, formation of formazan dyes (Means) (Malate dehydrogenase [11]): 2.09 and 3.28 and 3.71 and 3.96 and 4.00
Means absorbance 0 h [12]: 0.42
Means absorbance 1 h [12]: 0.48
Means absorbance 2 h [12]: 0.53
Means absorbance 3 h [12]: 0.59
Means absorbance 4 h [12]: 0.60
Means absorbance 6 h [12]: 0.77
Means absorbance 8 h [12]: 0.91
Means absorbance 10 h [12]: 1.03
Means absorbance 12 h [12]: 1.17
Absorbance, formation of formazan dyes (Means) (diaphorase [13]; 0 h): 0.39
Absorbance, formation of formazan dyes (Means) (diaphorase [13]; 1 h): 0.45
Absorbance, formation of formazan dyes (Means) (diaphorase [13]; 2 h): 0.48
Absorbance, formation of formazan dyes (Means) (diaphorase [13]; 3 h): 0.53
Absorbance, formation of formazan dyes (Means) (diaphorase [13]; 4 h): 0.52
Absorbance, formation of formazan dyes (Means) (diaphorase [13]; 6 h): 0.57
Absorbance, formation of formazan dyes (Means) (diaphorase [13]; 8 h): 0.63
Absorbance, formation of formazan dyes (Means) (diaphorase [13]; 10 h): 0.69
Absorbance, formation of formazan dyes (Means) (diaphorase [13]; 12 h): 0.73
